Results reported in patent US4530836A, “Peptide” (Amano Pharmaceutical Co., Ltd., priority 1983, dated 1985).
Where two headings read alike, the source gives them in different places. Starred links: 1 amine or outer side, 2 acyl side, 3 side chain; linkers in the order of their positions; H or OH if unused. Non-standard residues stand in square brackets, D forms with d. Residues, ends and D or L forms follow the SMILES beside them. sY = N[C@@H](Cc1ccc(OS(=O)(=O)O)cc1)C(=O)O; Glutaryl = O=C(CCCC(=O)[*:2])[*:1]; pGlu = O=C1CC[C@@H](C(=O)O)N1; Suc = O=C(CCC(=O)[*:2])[*:1]

How the values were obtained:
[1] = system: gastric acid secretion; assay: Gastric acid secretion accelerating activity in Shay rats; assay type: in vivo, rat; conditions: pylorus-ligated male Wistar rats, i.v., gastric juice 2 hours after administration; tetragastrin = 1.0
Protocol: This test was conducted with Shay rats [H, Shay et al., Gastroenterology, 5, 43 (1945)] prepared. Employing male Wistar rats (weighing 270-310 g) deprived for 24 hours, the gastric pylorus was ligated under ether-anesthesia. Immediately thereafter, the invented peptides and tetragastrin as a control were administered intravenously. Gastric juice was withdrawn 2 hours after administration, and its amount and the total amount of acid secreted were measured to determine the relative potency based on tetragastrin.

[2] = system: pancreatic external secretion; assay: Pancreatic external secretion accelerating activity (protein secretion), compared with tetragastrin; assay type: in vivo, rat; conditions: rats, i.v., increment in protein secretion rate during 30 minutes (UV 280 nm); tetragastrin = 1.0
Protocol: This test was conducted in accordance with the method of Dockray [J. Physiol., 225, 679-692 (1972)]. Male Wistar rats (weighing about 280 g) were deprived for 24 hours and under anesthesia the gastric pylorus and the duodenal side end of the common hepatic duct were ligated. A canula for collection of pancreatic juice was inserted into the duct in the retrograde fashion. The bile was led into the duodenum. […] The test was conducted in the same manner as stated already. The increment in the secretion rate of the protein in the pancreatic during 30 minutes after administration of the test solution was determined from the ultraviolet absorbance at 280 nm of the pancreatic juice. The found values were compared with that of tetragastrin.

[3] = system: gallbladder; assay type: in vivo, guinea pig; conditions: for Gallbladder contracting activity (in words): compared with CCK-8
Protocol: This test was in accordance with the method of G. Bertaccini et al. [Br. J. Pharmacol., 34, 291-310 (1968)].
Male Hartley guinea pigs (weighing 400-600 g) was anesthetized with urethane and fixed at the supine position. After laparotomy, the top of the gallbladder was clamped with a Serre-fine which was connected to a FD pickup (model: SB-IT, NIHON KOHDEN KOGYO Co., Ltd.), and the contraction was recorded on a recorder (model: PJB-3012, made by the above company) through a preamplifier (model: RUP-25, made by the above company). A standard solution and the invented peptide solutions were injected into the jugular vein, and the relative potency was determined from the peak height of the gallbladder contraction.

[4] = system: pancreatic external secretion; assay: Acceleration of pancreatic external secretion (method of Dockray), i.v. in rats, compared with CCK-8; assay type: in vivo, rat; conditions: male Wistar rats, 30 minutes after administration
Protocol: This test was conducted in accordance with the method of Dockray [J. Physiol., 225, 679-692 (1972)]. Male Wistar rats (weighing about 280 g) were deprived for 24 hours and under anesthesia the gastric pylorus and the duodenal side end of the common hepatic duct were ligated. A canula for collection of pancreatic juice was inserted into the duct in the retrograde fashion. The bile was led into the duodenum. Varying concentrations of the control solution (CCK-8 solution) and solutions of the invented peptides in a volume of 50 μl were administered intravenously every one hour, thus determining the increment in the secretion rate of the pancreatic juice and protein during 30 minutes after administration, wherein the amount of the whole protein secreted was determined from the ultraviolet absorbance at 280 nm of the pancreatic juice secreted.

[5] = male Hartley guinea pigs, injection into jugular vein, from peak height of gallbladder contraction, CCK-8 = 100

Compound | Gastric acid secretion accelerating activity, relative potency [1] | Pancreatic external secretion accelerating activity, relative potency [2] | Gallbladder contracting activity (in words) ([3]; guinea pig) | Gallbladder contracting activity, relative potency ([3]; guinea pig, in vivo) | Increased amount of the pancreatic juice secreted (in words) [4] | Gallbladder contracting activity, relative potency [3, 5]
CSCC[C@H](NC(=O)[C@H](Cc1c[nH]c2ccccc12)NC(=O)CNC(=O)[C@H](Cc1ccc(OS(=O)(=O)O)cc1)NC(=O)[C@H](C)NC(=O)[C@@H]1CCC(=O)N1)C(=O)N[C@@H](CC(=O)O)C(=O)N[C@@H](Cc1ccccc1)C(N)=O [Compound XI, pGlu-Ala-Tyr(SO3 H)-Gly-Trp-Met-Asp-Phe-NH2] ([pGlu]A[sY]GWMDF-NH2) | 2.0 | 50.0 | – | – | – | –
CSCC[C@H](NC(=O)[C@H](Cc1c[nH]c2ccccc12)NC(=O)[C@@H](Cc1c[nH]c2ccccc12)NC(=O)[C@H](CCSC)NC(=O)[C@H](Cc1ccc(OS(=O)(=O)O)cc1)NC(=O)CCC(=O)O)C(=O)N[C@@H](CC(=O)O)C(=O)N[C@@H](Cc1ccccc1)C(N)=O [Compound IV, Suc-Tyr(SO3 H)-Met-D-Trp-Trp-Met-Asp-Phe-NH2] (Suc-[sY]M[dW]WMDF-NH2) | – | – | mild | 5.0 | comparable to that of CCK-8 | –
CSCC[C@H](NC(=O)[C@H](Cc1c[nH]c2ccccc12)NC(=O)CNC(=O)[C@H](Cc1ccc(OS(=O)(=O)O)cc1)NC(=O)[C@H](C)NC(=O)CCCC(=O)O)C(=O)N[C@@H](CC(=O)O)C(=O)N[C@@H](Cc1ccccc1)C(N)=O [Compound X, Glt-Ala-Tyr(SO3 H)-Gly-Trp-Met-Asp-Phe-NH2] (Glutaryl-A[sY]GWMDF-NH2) | 6.1 | 258.8 | – | – | – | –
CSCC[C@H](NC(=O)[C@H](Cc1ccc(OS(=O)(=O)O)cc1)NC(=O)[C@@H](N)CC(=O)O)C(=O)NCC(=O)N[C@@H](Cc1c[nH]c2ccccc12)C(=O)N[C@@H](CCSC)C(=O)N[C@@H](CC(=O)O)C(=O)N[C@@H](Cc1ccccc1)C(N)=O [CCK-8, Asp-Tyr(SO3 H)-Met-Gly-Trp-Met-Asp-Phe-NH2, reference compound] | – | – | – | 100 | – | –
CSCC[C@H](NC(=O)[C@H](Cc1ccc(OS(=O)(=O)O)cc1)NC(=O)CCC(=O)O)C(=O)NCC(=O)N[C@@H](Cc1c[nH]c2ccccc12)C(=O)N[C@@H](CCSC)C(=O)N[C@@H](CC(=O)O)C(N)=O [Compound II, Suc-Tyr(SO3 H)-Met-Gly-Trp-Met-Asp-NH2] (Suc-[sY]MGWMD-NH2) | – | – | no activity | 0 | no active effect | –
CSCC[C@H](NC(=O)[C@H](Cc1c[nH]c2ccccc12)NC(=O)CNC(=O)[C@H](CCSC)NC(=O)[C@H](Cc1ccc(OS(=O)(=O)O)cc1)NC(=O)CCC(=O)O)C(N)=O [Compound I, Suc-Tyr(SO3 H)-Met-Gly-Trp-Met-NH2] (Suc-[sY]MGWM-NH2) | – | – | no activity | 0 | no active effect | –
CSCC[C@H](NC(=O)[C@@H](N)Cc1c[nH]c2ccccc12)C(=O)N[C@@H](CC(=O)O)C(=O)N[C@@H](Cc1ccccc1)C(N)=O [Tetragastrin, reference compound] | 1.0 | 1.0 | – | – | – | –
Suc-Phe(NHSO3 H)-Met-Gly-Trp-Met-Asp-Phe-NH2 [Compound VII] | – | – | little activity | – | no active effect | < 1.0
Suc-Tyr(SO3 H)-Met-D-Ala-Trp-Met-Asp-Phe-NH2 [Compound III] | – | – | mild | – | – | 8.7
CSCC[C@H](NC(=O)[C@H](Cc1ccc(OS(=O)(=O)O)cc1)NC(=O)[C@H](CC(=O)O)NC(=O)CCN)C(=O)NCC(=O)N[C@@H](Cc1c[nH]c2ccccc12)C(=O)N[C@@H](CCSC)C(=O)N[C@@H](CC(=O)O)C(=O)N[C@@H](Cc1ccccc1)C(N)=O [Compound IX, β-Ala-Asp-Tyr(SO3 H)-Met-Gly-Trp-Met-Asp-Phe-NH2] | – | – | comparable activities with CCK-8 | 113 | about half of that of CCK-8 | –
CSCC[C@H](NC(=O)[C@H](Cc1ccc(OS(=O)(=O)O)cc1)NC(=O)[C@H](CC(=O)O)NC(=O)CN)C(=O)NCC(=O)N[C@@H](Cc1c[nH]c2ccccc12)C(=O)N[C@@H](CCSC)C(=O)N[C@@H](CC(=O)O)C(=O)N[C@@H](Cc1ccccc1)C(N)=O [Compound VIII, Gly-Asp-Tyr(SO3 H)-Met-Gly-Trp-Met-Asp-Phe-NH2] | – | – | comparable activities with CCK-8 | 97 | comparable to that of CCK-8 | –
CSCC[C@H](NC(=O)[C@H](Cc1c[nH]c2ccccc12)NC(=O)[C@@H](Cc1c[nH]c2ccccc12)NC(=O)[C@H](CCSC)NC(=O)[C@H](Cc1ccc(OS(=O)(=O)O)cc1)NC(=O)CCCC(=O)O)C(=O)N[C@@H](CC(=O)O)C(=O)N[C@@H](Cc1ccccc1)C(N)=O [Compound V, Glt-Tyr(SO3 H)-Met-D-Trp-Trp-Met-Asp-Phe-NH2] (Glutaryl-[sY]M[dW]WMDF-NH2) | – | – | little activity | < 1.0 | comparable to that of CCK-8 | –
